What was measured:
P. aeruginosa PAO1 = assay: Broth microdilution MIC in CAMHB; type: cell-based; conditions: Pseudomonas aeruginosa, MHB, read-out: Minimum Inhibitory Concentration, P. aeruginosa PAO1
Experimental: To determine the ability of test compounds to inhibit the growth of bacterial strains, classic cell based broth microdilution minimum inhibitory concentration (MIC) assays were employed. MIC assays are performed according to CLSI methods except where otherwise noted (CLSI, 2018 and CLSI, 2019). The reference type strain E. coli ATCC 25922; the wild-type parent strain E. coli AG100; the hyper-permeable E. coli 901C and E. coli D22; and the E. coli AG100A strain lacking the acrAB efflux pump encoding genes were used to determine the ability of the PBP inhibitors to penetrate the outer membrane of gram-negative bacteria and inhibit bacterial growth. […] The P. aeruginosa ATCC 27853 and A. baumannii ATCC 19606, along with the hyper-permeable P. aeruginosa ATCC 35151 and an engineered efflux pump-compromised strain of P. aeruginosa (ΔmexAB-oprM) were used to determine the ability of PBP inhibitors to penetrate the outer membrane of P. aeruginosa and A. baumannii and assess antibacterial activity against these important gram-negative organisms.
Briefly, cryo-preserved bacterial cultures of challenge strains are streaked for isolation on appropriate agar medium, in this case cation-adjusted Mueller Hinton agar. Following incubation to allow growth of the colonies, plates are sealed with parafilm and stored refrigerated for up to two weeks. For preparation of assay inoculum and to ensure low variability, at least 5 colonies are picked from the agar plates with an inoculating loop and aseptically transferred to a culture tube containing 3 mL of cation-adjusted Mueller Hinton broth (CAMHB). The broth culture is grown for 3-5 hours at 37° C. with shaking at 200 rpm. Meanwhile, 2-fold serial dilutions of test compounds are conducted in a 96-well plate with a final volume of 75 μL per well at 2-fold the final desired concentration. After the dilution plates are set up the growing cultures are then diluted in a cuvette containing CAMHB and the optical density is measured at 600 nm. The inoculum is diluted such that 75 μL of this culture in CAMHB results in a starting bacterial concentration of 2-8×10^5 CFU/mL when added to the dilution plates. The plates are incubated for 16-20 hours for Enterobacteriaceae and Pseudomonas and 20-24 hours for Acinetobacter at 37° C. The MIC values are read visually as the lowest concentration well with no bacterial growth.

A. baumannii PBP2 = biological target: T1, A. baumannii PBP2 (Acinetobacter baumannii, UniProt D0C8Z9); assay: Bocillin-FL fluorescence polarization competition binding assay, A. baumannii PBP2; conditions: fluorescence polarization competition binding assay using Bocillin-FL; read-out: A. baumannii PBP2 Potency
T1 construct: made in house
T1 sequence (D0C8Z9 1-672): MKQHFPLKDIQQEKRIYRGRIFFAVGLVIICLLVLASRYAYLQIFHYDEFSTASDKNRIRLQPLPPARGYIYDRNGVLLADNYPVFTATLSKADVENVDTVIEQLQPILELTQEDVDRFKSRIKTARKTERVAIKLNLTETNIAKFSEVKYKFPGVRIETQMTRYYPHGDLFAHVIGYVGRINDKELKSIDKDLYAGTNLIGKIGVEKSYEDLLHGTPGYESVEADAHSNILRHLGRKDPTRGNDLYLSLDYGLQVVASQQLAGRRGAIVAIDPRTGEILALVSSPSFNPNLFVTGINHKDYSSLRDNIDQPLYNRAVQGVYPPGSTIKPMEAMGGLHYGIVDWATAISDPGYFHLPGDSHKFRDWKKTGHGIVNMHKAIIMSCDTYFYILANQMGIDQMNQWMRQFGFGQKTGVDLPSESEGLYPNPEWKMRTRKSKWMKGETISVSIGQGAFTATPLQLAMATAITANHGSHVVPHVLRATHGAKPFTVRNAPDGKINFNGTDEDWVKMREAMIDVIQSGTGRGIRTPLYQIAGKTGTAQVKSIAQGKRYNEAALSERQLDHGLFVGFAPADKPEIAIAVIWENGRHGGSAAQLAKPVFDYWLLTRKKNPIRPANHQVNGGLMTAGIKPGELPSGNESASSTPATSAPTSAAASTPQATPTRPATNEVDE
Source text: (§1) Example I: Experimental Method for Penicillin-Binding Protein Binding Assays with Bocillin-FL Via Fluorescence Polarization
(§2) To determine the ability of boronic acid-based test PBP inhibitors to bind Penicillin Binding Proteins (PBPs), Bocillin-FL (fluorescently-labeled penicillin V; ThermoFisher Scientific) was used in a fluorescence polarization (FP) competition binding assay to assess inhibitor binding to PBP2, PBP3 or PBP4 from Escherichia coli (K12), PBP3 from Pseudomonas aeruginosa (PA01), PBP1a, PBP2 and PBP3 from Acinetobacter baumannii (ATCC 19606), and PBP2 from Neiserria gonorrheae (FA19). PBPs were cloned and purified as described previously (E. coli PBPs, King, D. T, et al., ACS Infectious Diseases 2015, 1, 175-184; P. aeruginosa PBP3, Han et. al., PNAS 2010, 107 (51), 22002-22007; A. baumannii PBPs, Penwell et. al., Antimicrob. Agents Chemother. 2015, 59 (3), 1680-1689; N. gonorrhoeae PBP2, Singh et. al., J Biol. Chem. 2019, 294 (38), 14020-14032). To establish assay conditions for competition binding, enzyme titration/saturation binding experiments were initially performed. Bocillin-FL was prepared at 0.2 μM in a buffer comprised of 50 mM Hepes (pH 8.0), 300 mM NaCl and 5% (v/v) glycerol for reactions with E. coli, P. aeruginosa and N. gonorrhoeae PBPs, and 25 mM Tris (pH 8.0), 200 mM NaCl and 10% (v/v) glycerol and 0.005% (v/v) Tween 20 for reactions with A. baumannii PBPs. Saturation binding was performed by mixing 40 μl of PBP solutions ranging in concentrations from 0-24 μM with 40 μl of the 0.2 μM Bocillin-FL solution, in individual wells of a black 384-well microplate. FP was measured immediately upon mixing (Excitation, 490 nm; Emission, 520 nm; g-factor, 0.96), using a Cytation3 (BioTek) microplate reader and measured continuously for up to 120 minutes. […] The competition binding assay (80 μl final volume) was validated using beta-lactams and PBPs at final concentrations of: 1.5 μM, E. coli PBP3; 0.75 μM, P. aeruginosa PBP3; 1 μM A. baumannii PBP1a; 2.5 μM A. baumannii PBP2; 0.2 μM A. baumannii PBP3; and […] N. gonorrhoeae PBP2. Bocillin-FL was at 0.1 μM (0.05 μM with A. baumannii PBP1a) and beta-lactam concentrations ranged from 0-1000 μM. […] Bocillin-FL was added and the FP immediately measured for up to 60 minutes (90 minutes for E. coli PBP2). […] The beta-lactam potency was reported as the concentration of beta-lactam required to reduce the amount of PBP bound-Bocillin-FL by 50% (EC50). […] Binding assays for boronic acid PBP inhibitors were performed in an identical fashion for the respective PBPs

A. baumannii PBP1a = A. baumannii PBP1a (Acinetobacter baumannii, UniProt A0ABX6CK30); assay: Bocillin-FL fluorescence polarization competition binding assay, A. baumannii PBP1a; conditions: fluorescence polarization competition binding assay using Bocillin-FL; column 1; read-out: A. baumannii PBP1a Potency
Sequence of A. baumannii PBP1a (A0ABX6CK30 entry or part of it): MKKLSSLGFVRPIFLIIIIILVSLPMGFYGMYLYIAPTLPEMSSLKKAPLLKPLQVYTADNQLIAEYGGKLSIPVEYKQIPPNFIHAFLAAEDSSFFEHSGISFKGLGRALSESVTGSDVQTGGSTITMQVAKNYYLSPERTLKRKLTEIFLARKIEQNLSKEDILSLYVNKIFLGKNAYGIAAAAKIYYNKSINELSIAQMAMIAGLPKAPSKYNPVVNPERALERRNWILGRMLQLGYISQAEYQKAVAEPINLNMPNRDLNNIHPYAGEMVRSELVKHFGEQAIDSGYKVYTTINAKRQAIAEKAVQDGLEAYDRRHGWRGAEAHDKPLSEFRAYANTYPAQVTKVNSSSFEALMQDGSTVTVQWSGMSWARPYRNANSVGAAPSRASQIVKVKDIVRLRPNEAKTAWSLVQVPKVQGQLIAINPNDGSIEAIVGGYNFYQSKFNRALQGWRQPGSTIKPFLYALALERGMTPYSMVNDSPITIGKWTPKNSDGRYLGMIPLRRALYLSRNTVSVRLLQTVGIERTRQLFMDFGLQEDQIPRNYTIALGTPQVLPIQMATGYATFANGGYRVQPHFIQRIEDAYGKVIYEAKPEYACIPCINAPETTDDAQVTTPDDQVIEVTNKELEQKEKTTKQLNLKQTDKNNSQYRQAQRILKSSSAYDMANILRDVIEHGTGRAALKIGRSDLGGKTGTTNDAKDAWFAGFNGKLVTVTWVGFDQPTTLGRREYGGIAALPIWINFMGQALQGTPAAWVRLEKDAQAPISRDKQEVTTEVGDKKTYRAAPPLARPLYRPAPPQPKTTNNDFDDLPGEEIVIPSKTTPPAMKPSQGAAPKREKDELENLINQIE
Source text: as §1, §2

`CCN1CCN(C(=O)NC(C(=O)N[C@H]2Cc3ccc(SCc4ccc(O)cc4)c(C(=O)O)c3OB2O)c2csc(N)n2)C(=O)C1=O` (stereo partly drawn) [Example 55, (3R)-3-(2-(2-aminothiazol-4-yl)-2-(4-ethyl-2,3-dioxopiperazine-1-carboxamido)acetamido)-2-hydroxy-7-((4-hydroxybenzyl)thio)-3,4-dihydro-2H-benzo[e][1,2]oxaborinine-8-carboxylic acid] gave an MIC (P. aeruginosa PAO1) of over 128 µg/mL.
With `O=C(O)c1c(F)ccc2c1OB(O)[C@@H](NC(=O)[C@H](NC(=O)N1CCNC1=O)c1c(F)cc(O)c(O)c1Cl)C2` (single isomer, unassigned) [Example 34] the EC50 (A. baumannii PBP2) was 30 to 100 µM and the EC50 (A. baumannii PBP1a) was over 100 µM.
Work on `CS(=O)(=O)N1CCN(C(=O)NC(C(=O)N[C@H]2Cc3ccc(F)c(C(=O)O)c3OB2O)c2ccc(O)c(O)c2Cl)C1=O` (stereo partly drawn) [Example 23, (3R)-3-(2-(2-chloro-3,4-dihydroxyphenyl)-2-(3-(methylsulfonyl)-2-oxoimidazolidine-1-carboxamido)acetamido)-7-fluoro-2-hydroxy-3,4-dihydro-2H-benzo[e][1,2]oxaborinine-8-carboxylic acid] yielded an EC50 (A. baumannii PBP2) of over 100 µM and an EC50 (A. baumannii PBP1a) of over 100 µM.
Molecule `CCN1CCN(C(=O)NC(C(=O)N[C@H]2Cc3ccc(O[C@@H]4CN[C@H](C(=O)N(C)C)C4)c(C(=O)O)c3OB2O)c2ccccc2)C(=O)C1=O` (stereo partly drawn) [Example 59, (3R)-7-(((3S,5S)-5-(dimethylcarbamoyl)pyrrolidin-3-yl)oxy)-3-(2-(4-ethyl-2,3-dioxopiperazine-1-carboxamido)-2-phenylacetamido)-2-hydroxy-3,4-dihydro-2H-benzo[e][1,2]oxaborinine-8-carboxylic acid] has an MIC (P. aeruginosa PAO1) of over 128 µg/mL.
Work on `CCN1CCN(C(=O)NC(C(=O)N[C@H]2Cc3cccc(C(=O)O)c3OB2O)c2ccc(O)c(NC(=O)c3ccc(O)c(O)c3Cl)c2)C(=O)C1=O` (stereo partly drawn) [Example 74, (3R)-3-(2-(3-(2-chloro-3,4-dihydroxybenzamido)-4-hydroxyphenyl)-2-(4-ethyl-2,3-dioxopiperazine-1-carboxamido)acetamido)-2-hydroxy-3,4-dihydro-2H-benzo[e][1,2]oxaborinine-8-carboxylic acid] yielded an EC50 (A. baumannii PBP2) of over 100 µM and an EC50 (A. baumannii PBP1a) of 30 to 100 µM.
For `CCN1CCN(C(=O)NC(C(=O)N[C@H]2Cc3ccc(C=O)c(C(=O)O)c3OB2O)c2csc(N)n2)C(=O)C1=O` (stereo partly drawn) [Example 57, (3R)-3-(2-(2-aminothiazol-4-yl)-2-(4-ethyl-2,3-dioxopiperazine-1-carboxamido)acetamido)-7-formyl-2-hydroxy-3,4-dihydro-2H-benzo[e][1,2]oxaborinine-8-carboxylic acid], the MIC (P. aeruginosa PAO1) was over 128 µg/mL.
In the case of `NCCN1CCN(C(=O)N[C@@H](C(=O)N[C@H]2Cc3ccc(F)c(C(=O)O)c3OB2O)c2c(F)cc(O)c(O)c2F)C(=O)C1=O` (single isomer, unassigned) [Example 40], the EC50 (A. baumannii PBP2) is reported as 30 to 100 µM and the EC50 (A. baumannii PBP1a) is reported as over 100 µM.
With `NCCCN1CCN(C(=O)N[C@@H](C(=O)N[C@H]2Cc3ccc(F)c(C(=O)O)c3OB2O)c2c(F)cc(O)c(O)c2Cl)C(=O)C1=O` (single isomer, unassigned) [Example 27] the EC50 (A. baumannii PBP2) was over 100 µM and the EC50 (A. baumannii PBP1a) was over 100 µM.
In the case of `CCN1CCN(C(=O)NC(C(=O)N[C@H]2Cc3ccc(CO)c(C(=O)O)c3OB2O)c2csc(N)n2)C(O)C1=O` (stereo partly drawn) [Example 58, (3R)-3-(2-(2-aminothiazol-4-yl)-2-(4-ethyl-2-hydroxy-3-oxopiperazine-1-carboxamido)acetamido)-2-hydroxy-7-(hydroxymethyl)-3,4-dihydro-2H-benzo[el][1,2]oxaborinine-8-carboxylic acid], the MIC (P. aeruginosa PAO1) is reported as over 128 µg/mL.
Molecule `NCCN1CCN(C(=O)N[C@@H](C(=O)N[C@H]2Cc3ccc(F)c(C(=O)O)c3OB2O)c2c(F)cc(O)c(O)c2Cl)C(=O)C1=O` (single isomer, unassigned) [Example 26] has an EC50 (A. baumannii PBP2) of over 100 µM and an EC50 (A. baumannii PBP1a) of over 100 µM.
`CCN1CCN(C(=O)NC(C(=O)N[C@H]2Cc3ccc(OCCN)c(C(=O)O)c3OB2O)c2ccccc2)C(=O)C1=O` (stereo partly drawn) [Example 60, (3R)-7-(2-aminoethoxy)-3-(2-(4-ethyl-2,3-dioxopiperazine-1-carboxamido)-2-phenylacetamido)-2-hydroxy-3,4-dihydro-2H-benzo[e][1,2]oxaborinine-8-carboxylic acid] showed an MIC (P. aeruginosa PAO1) of over 128 µg/mL.

From patent publication US20230114728A1 (Venatorx Pharmaceuticals, Inc., priority 2019, published 2023)
